Measured values published in patent publication US20220056014A1, “PHENYLPYRROLIDINE COMPOUND AND USE THEREOF” (WUHAN HUMANWELL INNOVATIVE DRUG RESEARCH AND DEVELOPMENT …, priority 2018, published 2022).
Read-outs that look alike come from different tables or passages of the source.

Experiments:
[1] = test system: LPS-stimulated TNF-α release; test: LPS-stimulated TNF-α release in mice; format: in vivo, Balb/c mice; conditions: Mus musculus, oral 50 mg/kg (positive control 100 mg/kg), 1 mg/kg LPS i.p.
Summary of the method: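 Balb/c mice (6 per group) dosed orally with 50 mg/kg compound, then 1 mg/kg LPS i.p. 30 min later; serum taken 90 or 120 min post-LPS. Serum TNF-α measured by ELISA; inhibition % calculated relative to model and blank (PBS) groups.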

Rat pharmacokinetic test = format: in vivo, SD rats; conditions: male, Sprague-Dawley (SD), plasma, oral gavage 10 mg/kg
Method: In the rat pharmacokinetic test, 3 male SD rats (180-240 g) were fasted overnight, and orally administered with 10 mg/kg of compound to be tested. Blood was collected before the administration, and 15 min, 30 min, 1 h, 2 h, 4 h, 8 h, and 24 h hours after the administration. The blood sample was centrifuged at 8000 rpm for 6 min at 4° C., and the plasma was collected and stored at −20° C. The plasma collected at each time point was added and mixed with 3-5 times the amount of acetonitrile solution containing an internal standard, vortexed for 1 min, centrifuged at 13,000 rpm for 10 min at 4° C. The supernatant was taken and mixed with 3 times the amount of water, and an appropriate amount of the mixture was taken for LC-MS/MS analysis. The main pharmacokinetic parameters were analyzed with WinNonlin 7.0 software non-compartmental model.

[2] = test system: LPS-induced secretion of TNFα in human PBMCs; test: LPS-induced secretion of TNFα in human PBMCs; format: cell-based; conditions: Homo sapiens, PBMC, 24 h, LPS 10 ng/ml
Summary of the method: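 PBMCs isolated by Lymphoprep density centrifugation were seeded at 5×10^4/well in RPMI1640 + 10% FBS and given compound, with 30 min pre-incubation, then stimulated with 10 ng/ml LPS (final). After 24 h, supernatant TNF-α was measured by ELISA kit.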

[3] = test system: Mouse CIA arthritis model; test: Mouse CIA arthritis model test; format: in vivo, DBA/1 mice; conditions: 30 mg/kg oral, twice a day for 21 days; for inhibition rate based on clinical score AUC: AUC day 21 to day 42; for Clinical score (endpoint): day 42, highest score 16
Method: (1) Preparation of Type II Collagen/Complete Freund's Adjuvant
Preparation of acetic acid: 2N acetic acid was diluted to 100 mM, filtered with 0.22 μm filter membrane, and stored at 4° C.
Preparation of bovine type II collagen solution: bovine type II collagen (CII) was dissolved in 100 mM acetic acid solution and stored at 4° C. overnight. A final concentration of collagen was 8 mg/mL.
Preparation of emulsion: the CII solution stored overnight was mixed with an equal volume of complete Freund's adjuvant, and homogenized on ice by a high-speed homogenizer at 30,000 rpm for approximately 60 min, until the solution formed a stable emulsion.
After DBA/1 mice were anesthetized with isoflurane, 50 μl of prepared collagen emulsion (containing 200 micrograms of CII) was injected subcutaneously in the tail (2-3 cm from the base of the tail) for immunization. The day of the primary immunization was recorded as day 0, and the following days were recorded sequentially. On day 21, the same volume of collagen emulsion was injected into the tail in the same way. Mice in the normal group were not immunized.
On day 21, the mice that had been induced to have arthritis were randomly grouped according to their body weights, such that the average body weight of each group was consistent, and they were randomly divided into 6 treatment groups for administration, with 10 mice in each group.
G1 group included normal mice without being treated; G2 group was given a blank vehicle; G3 to G7 groups were administrated with the compound at a dose of 30 mg/kg, twice a day for 21 days. The volume of oral administration was 10 mL/kg.
After the enhanced immunization, the disease incidence of the mice was observed every day. When the mice began to develop symptoms (clinical symptoms of arthritis emerged), the symptoms were graded as 0 to 4 according to the different degrees of pathological changes (redness, joint deformation), where the highest score for each limb was 4, and the highest score for each animal was 16. The mice were graded at least three times a week.
The area under curve (AUC) of clinical scores of each group from day 21 to day 42 was calculated, and the inhibition rate % of the clinical score AUC of the administration group was calculated:
Inhibition rate %=1−(administration group AUC/blank vehicle group AUC)*100%
The experimental data are expressed as Mean±standard error (Mean±SEM), and the clinical scores were analyzed with One-way ANOVA, where p<0.05 was considered to be a significant difference.

[4] = 1.5 h, blood 90 min after LPS, read-out: Inhibition rate (%) of LPS-stimulated TNF-α release, 90 min
[5] = 2 h, blood 120 min after LPS, read-out: Inhibition rate (%) of LPS-stimulated TNF-α release, 120 min

Molecule `COc1ccc([C@@H]2CN(C(=O)[C@@H](O)CO)C[C@@]2(C)[C@@H](C)O)cc1OC1CN(c2ncc(C)cc2F)C1` [Compound 004, (S)-1-((3S,4S)-4-(3-((1-(3-fluoro-5-methylpyridin-2-yl)azetidin-3-yl)oxy)-4-methoxyphenyl)-3-((R)-1-hydroxyethyl)-3-methylpyrrolidin-1-yl)-2,3-dihydroxypropan-1-one] has an inhibition in vivo at 50 mg/kg [1, 4] of 39.6%, an inhibition in vivo at 50 mg/kg [1, 5] of 58.6% and an AUC(0-t) (Rat pharmacokinetic test) of 2480 ng·h/mL. For the same molecule, the Cmax (Rat pharmacokinetic test) was 823 ng/mL, the Tmax (Rat pharmacokinetic test) was 25.2 min and the IC50 [2] was 5.13 nM. For the same molecule, the “inhibition rate based on clinical score AUC” value (“inhibition rate based” below) [3] was 67.5% and the “Clinical score (endpoint)” value [3] was 3.3.

Molecule `COc1ccc([C@@H]2CN(C(=O)[C@@H](O)CO)C[C@@]2(C)[C@@H](C)O)cc1OC1CN(c2ccc(Cl)c(C)n2)C1` [Compound 011, (S)-1-((3S,4S)-4-(3-((1-(5-chloro-6-methylpyridin-2-yl)azetidin-3-yl)oxy)-4-methoxyphenyl)-3-((R)-1-hydroxyethyl)-3-methylpyrrolidin-1-yl)-2,3-dihydroxypropan-1-one] has an inhibition in vivo at 50 mg/kg [1, 4] of 47.4%, an inhibition in vivo at 50 mg/kg [1, 5] of 63.3% and an AUC(0-t) (Rat pharmacokinetic test) of 294 ng·h/mL. It also gave a Cmax (Rat pharmacokinetic test) of 126 ng/mL, a Tmax (Rat pharmacokinetic test) of 25.2 min and an IC50 [2] of 1.55 nM. For the same molecule, the “inhibition rate based” value [3] was 49.3% and the “Clinical score (endpoint)” value [3] was 4.8.

`COc1ccc([C@@H]2CN(C(=O)[C@@H](O)CO)C[C@@]2(C)[C@@H](C)O)cc1OC1CN(c2ccc(C)cn2)C1` [Positive control compound, reference compound] gave an inhibition in vivo at 50 mg/kg [1, 4] of 44.4%, an inhibition in vivo at 50 mg/kg [1, 5] of 49% and an AUC(0-t) (Rat pharmacokinetic test) of 190 ng·h/mL. It also gave a Cmax (Rat pharmacokinetic test) of 68.2 ng/mL, a Tmax (Rat pharmacokinetic test) of 30 min and an IC50 [2] of 3.32 nM. The “inhibition rate based” value [3] was 42.3% and the “Clinical score (endpoint)” value [3] was 4.4.

For `COc1ccc([C@@H]2CN(C(=O)[C@@H](O)CO)C[C@@]2(C)[C@@H](C)O)cc1OC1CN(c2ccc(C)c(C)n2)C1` [Compound 007, (S)-1-((3S,4S)-4-(3-((1-(5,6-dimethylpyridin-2-yl)azetidin-3-yl)oxy)-4-methoxyphenyl)-3-((R)-1-hydroxyethyl)-3-methylpyrrolidin-1-yl)-2,3-dihydroxypropan-1-one], the inhibition in vivo at 50 mg/kg [1, 4] was 52.1%, the inhibition in vivo at 50 mg/kg [1, 5] was 66.4% and the AUC(0-t) (Rat pharmacokinetic test) was 1530 ng·h/mL. For the same molecule, the Cmax (Rat pharmacokinetic test) was 735 ng/mL, the Tmax (Rat pharmacokinetic test) was 30 min and the IC50 [2] was 2.24 nM. For the same molecule, the “inhibition rate based” value [3] was 77.2% and the “Clinical score (endpoint)” value [3] was 3.1.
